# Source: PubChem BioAssay (NCI)
#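 Five compound concentrations were applied to cells in 96-well plates for 48 hours; endpoints were derived by simple linear interpolation of the resulting dose-response curve. GI50: concentration for 50% inhibition of growth. At the TGI there is no net growth.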
# Key:
# Experiment in all cases: inhibition of tumour cell growth, NCI panel, 48 h
# [1] = tested on: 786-0 renal
# [2] = tested on: SR leukemia
# [3] = tested on: HCT-15 colon
# [4] = tested on: HOP-62 NSCLC
# [5] = tested on: HOP-92 NSCLC
# [6] = tested on: EKVX NSCLC
# [7] = tested on: M14 melanoma
# [8] = tested on: RXF 393 renal
# [9] = tested on: U251 CNS
# [10] = tested on: CAKI-1 renal
# [11] = tested on: SF-539 CNS
# [12] = tested on: T-47D breast
# [13] = tested on: PC-3 prostate
# [14] = tested on: SNB-75 CNS
# [15] = tested on: NCI-H226 lung
# [16] = tested on: OVCAR-4 ovarian
# [17] = tested on: NCI/ADR-RES ovarian
# [18] = tested on: UACC-257 melanoma
# [19] = tested on: NCI-H522 lung
# [20] = tested on: SW-620 colon
# [21] = tested on: SK-MEL-2 melanoma
# [22] = tested on: HCT-116 colon
# [23] = tested on: NCI-H460 lung
# [24] = tested on: MDA-MB-435
# [25] = tested on: HS 578T breast
# [26] = tested on: BT-549 breast
# [27] = tested on: RPMI-8226 leukemia
# [28] = tested on: NCI-H23 lung
# [29] = tested on: ACHN renal
# [30] = tested on: COLO 205 colon
# [31] = tested on: CCRF-CEM leukemia
# [32] = tested on: A549 NSCLC
# [33] = tested on: MOLT-4 leukemia
# [34] = tested on: MDA-MB-231 breast
# [35] = tested on: IGROV1 ovarian
# [36] = tested on: UO-31 renal
# [37] = tested on: SK-OV-3 ovarian
# [38] = tested on: MALME-3M melanoma
# [39] = tested on: KM12 colon
# [40] = tested on: HCC-2998 colon
# [41] = tested on: UACC-62 melanoma
# [42] = tested on: SNB-19 CNS
# [43] = tested on: HT29 colon
# [44] = tested on: TK-10 renal
# [45] = tested on: DU-145 prostate
# [46] = tested on: OVCAR-5 ovarian
# [47] = tested on: SN12C renal
# [48] = tested on: OVCAR-8 ovarian
# [49] = tested on: A498 renal
# [50] = tested on: K-562 leukemia
# [51] = tested on: SK-MEL-28 melanoma
# [52] = tested on: SF-295 CNS
# [53] = tested on: SK-MEL-5 melanoma
# [54] = tested on: SF-268 CNS
# [55] = tested on: HL-60(TB) leukemia
# [56] = tested on: OVCAR-3 ovarian
# [57] = tested on: MCF7 breast
# [58] = tested on: LOX IMVI melanoma
compound,measurement,setting,value
CCOC(=O)c1ccc(NC2=C(Cl)C(=O)c3nc(C)ccc3C2=O)cc1,GI50,[1],1.88 µM
same,TGI,[1],3.93 µM
same,GI50,[2],0.783 µM
same,TGI,[2],3.57 µM
same,GI50,[3],1.57 µM
same,TGI,[3],3.37 µM
same,GI50,[4],10.2 µM
same,TGI,[4],23.9 µM
same,GI50,[5],1.8 µM
same,TGI,[5],3.48 µM
same,GI50,[6],2.53 µM
same,TGI,[6],7.55 µM
same,GI50,[7],1.85 µM
same,TGI,[7],3.76 µM
same,GI50,[8],1.63 µM
same,TGI,[8],3.02 µM
same,GI50,[9],3.75 µM
same,TGI,[9],16.1 µM
same,GI50,[10],1.53 µM
same,TGI,[10],2.99 µM
same,GI50,[11],2.52 µM
same,TGI,[11],6.72 µM
same,GI50,[12],2.1 µM
same,TGI,[12],5.09 µM
same,GI50,[13],3.31 µM
same,TGI,[13],15.7 µM
same,GI50,[14],2.3 µM
same,TGI,[14],10.3 µM
same,GI50,[15],3.43 µM
same,TGI,[15],17.5 µM
same,GI50,[16],1.67 µM
same,TGI,[16],3.26 µM
same,GI50,[17],2.57 µM
same,TGI,[17],9.61 µM
same,GI50,[18],1.63 µM
same,TGI,[18],3.12 µM
same,GI50,[19],1.71 µM
same,TGI,[19],3.72 µM
same,GI50,[20],2.06 µM
same,TGI,[20],4.41 µM
same,GI50,[21],2.89 µM
same,TGI,[21],9.46 µM
same,GI50,[22],1.87 µM
same,TGI,[22],4.36 µM
same,GI50,[23],8.76 µM
same,TGI,[23],30.1 µM
same,GI50,[24],3.21 µM
same,TGI,[24],10.8 µM
same,GI50,[25],2.55 µM
same,TGI,[25],7 µM
same,GI50,[26],2.06 µM
same,TGI,[26],5.1 µM
same,GI50,[27],2.16 µM
same,TGI,[27],5.95 µM
same,GI50,[28],2.31 µM
same,TGI,[28],7.58 µM
same,GI50,[29],1.81 µM
same,TGI,[29],3.35 µM
same,GI50,[30],1.75 µM
same,TGI,[30],3.58 µM
same,GI50,[31],1.27 µM
same,TGI,[31],4.88 µM
same,GI50,[32],19.4 µM
same,TGI,[32],70.5 µM
same,GI50,[33],1.57 µM
same,TGI,[33],5.32 µM
same,GI50,[34],3.73 µM
same,TGI,[34],17.1 µM
same,GI50,[35],3.43 µM
same,TGI,[35],11.3 µM
same,GI50,[36],1.54 µM
same,TGI,[36],3.01 µM
same,GI50,[37],10.5 µM
same,TGI,[37],23.9 µM
same,GI50,[38],1.83 µM
same,TGI,[38],3.62 µM
same,GI50,[39],3.37 µM
same,TGI,[39],12.9 µM
same,GI50,[40],3.63 µM
same,TGI,[40],13.8 µM
same,GI50,[41],2.46 µM
same,TGI,[41],11.2 µM
same,GI50,[42],4.76 µM
same,TGI,[42],89.4 µM
same,GI50,[43],2.18 µM
same,TGI,[43],5.13 µM
same,GI50,[44],1.79 µM
same,TGI,[44],3.24 µM
same,GI50,[45],1.82 µM
same,TGI,[45],3.4 µM
same,GI50,[46],13.2 µM
same,TGI,[46],33.7 µM
same,GI50,[47],3.51 µM
same,TGI,[47],20.2 µM
same,GI50,[48],4.38 µM
same,TGI,[48],18.4 µM
same,GI50,[49],11.7 µM
same,TGI,[49],28.3 µM
same,GI50,[50],0.371 µM
same,TGI,[50],3.3 µM
same,GI50,[51],2.47 µM
same,TGI,[51],6.02 µM
same,GI50,[52],5.48 µM
same,TGI,[52],19.1 µM
same,GI50,[53],2.21 µM
same,TGI,[53],5.63 µM
same,GI50,[54],3.86 µM
same,TGI,[54],17.1 µM
same,GI50,[55],1.1 µM
same,TGI,[55],3.21 µM
same,GI50,[56],1.78 µM
same,TGI,[56],3.22 µM
COC(=O)c1ccc(NC2=C(Cl)C(=O)C(C)=C(C)C2=O)cc1,GI50,[1],15.1 µM
same,TGI,[1],> 100 µM
same,GI50,[57],2.66 µM
same,TGI,[57],> 100 µM
same,GI50,[2],1.22 µM
same,TGI,[2],4.02 µM
same,GI50,[4],5.52 µM
same,TGI,[4],> 100 µM
same,GI50,[5],1.46 µM
same,TGI,[5],3.11 µM
same,GI50,[7],2.84 µM
same,TGI,[7],40.5 µM
same,GI50,[8],1.75 µM
same,TGI,[8],4.25 µM
same,GI50,[9],3.77 µM
same,TGI,[9],> 100 µM
same,GI50,[10],2.95 µM
same,TGI,[10],> 100 µM
same,GI50,[11],2.33 µM
same,TGI,[11],5.91 µM
same,GI50,[12],1.74 µM
same,TGI,[12],4.72 µM
same,GI50,[13],2.63 µM
same,TGI,[13],> 100 µM
same,GI50,[14],1.6 µM
same,TGI,[14],7.31 µM
same,GI50,[15],5.82 µM
same,TGI,[15],> 100 µM
same,GI50,[16],1.73 µM
same,TGI,[16],3.14 µM
same,GI50,[17],2.65 µM
same,TGI,[17],10.9 µM
same,GI50,[18],3.07 µM
same,TGI,[18],> 100 µM
same,GI50,[20],2.1 µM
same,TGI,[20],4.42 µM
same,GI50,[21],3.2 µM
same,TGI,[21],> 100 µM
same,GI50,[23],4.7 µM
same,TGI,[23],> 100 µM
same,GI50,[24],1.84 µM
same,TGI,[24],8.73 µM
same,GI50,[25],4 µM
same,TGI,[25],93.8 µM
same,GI50,[27],2.19 µM
same,TGI,[27],5.29 µM
same,GI50,[28],3.77 µM
same,TGI,[28],> 100 µM
same,GI50,[30],7.69 µM
same,TGI,[30],> 100 µM
same,GI50,[31],1.08 µM
same,TGI,[31],4.98 µM
same,GI50,[32],5.25 µM
same,TGI,[32],> 100 µM
same,GI50,[33],1.43 µM
same,TGI,[33],5.13 µM
same,GI50,[34],2.68 µM
same,TGI,[34],7.71 µM
same,GI50,[37],5.13 µM
same,TGI,[37],> 100 µM
same,GI50,[39],2.06 µM
same,TGI,[39],4.64 µM
same,GI50,[40],3.84 µM
same,TGI,[40],> 100 µM
same,GI50,[41],1.77 µM
same,TGI,[41],5.53 µM
same,GI50,[42],3.32 µM
same,TGI,[42],> 100 µM
same,GI50,[43],6.64 µM
same,TGI,[43],> 100 µM
same,GI50,[44],> 100 µM
same,TGI,[44],> 100 µM
same,GI50,[45],11.2 µM
same,TGI,[45],> 100 µM
same,GI50,[46],6.08 µM
same,TGI,[46],> 100 µM
same,GI50,[47],9.11 µM
same,TGI,[47],> 100 µM
same,GI50,[48],6.89 µM
same,TGI,[48],> 100 µM
same,GI50,[49],2.06 µM
same,TGI,[49],96.7 µM
same,GI50,[50],1.58 µM
same,TGI,[50],5.31 µM
same,GI50,[58],1.81 µM
same,TGI,[58],3.41 µM
same,GI50,[52],2.18 µM
same,TGI,[52],6.64 µM
same,GI50,[53],1.92 µM
same,TGI,[53],4.08 µM
same,GI50,[54],3.79 µM
same,TGI,[54],> 100 µM
same,GI50,[56],1.81 µM
same,TGI,[56],3.3 µM
